Source: PubChem BioAssay AID328 (DTP/NCI, 2004)
“And” between values parts separate entries of the source, which are not always exact repeats. Identical values can stand only once. Toxic doses and inconclusive results are not listed. Rule for the calls: active = survival T/C of 150% or more; inactive = T/C below 125% in these data.

Test system: BDF1 mice, P388 leukemia ip, median survival T/C
Test: NCI In Vivo Anticancer Drug Screen. Data for tumor model P388 Leukemia (intraperitoneal) in B6D2F1 (BDF1) mice
Details: endpoint: median survival time, higher = longer survival
Outline: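 Antitumour effect was judged in vivo: survival in drug-treated mice, normalised to that of vehicle-dosed controls, gives the reported T/C.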

[1] = dose: 100.0 mg/kg/injection, schedule: Q01DX009 (ip), vehicle: other
[2] = dose: 100.0 mg/kg/injection, schedule: Q04DX003 (ip), vehicle: Klucel (hydroxypropylcellulose) (HPC)
[3] = dose: 200.0 mg/kg/injection, schedule: Q04DX003 (ip), vehicle: Klucel (hydroxypropylcellulose) (HPC)
[4] = dose: 400.0 mg/kg/injection, schedule: Q04DX003 (ip), vehicle: Klucel (hydroxypropylcellulose) (HPC)
[5] = dose: 50.0 mg/kg/injection, schedule: Q01DX009 (ip), vehicle: Klucel (hydroxypropylcellulose) (HPC)
[6] = dose: 100.0 mg/kg/injection, schedule: Q01DX009 (ip), vehicle: Klucel (hydroxypropylcellulose) (HPC)
[7] = dose: 200.0 mg/kg/injection, schedule: Q01DX009 (ip), vehicle: Klucel (hydroxypropylcellulose) (HPC)
[8] = dose: 25.0 mg/kg/injection, schedule: Q04DX003 (ip), vehicle: saline
[9] = dose: 50.0 mg/kg/injection, schedule: Q04DX003 (ip), vehicle: saline
[10] = dose: 100.0 mg/kg/injection, schedule: Q04DX003 (ip), vehicle: saline
[11] = dose: 50.0 mg/kg/injection, schedule: Q01DX009 (ip), vehicle: saline with Tween-80
[12] = dose: 100.0 mg/kg/injection, schedule: Q01DX009 (ip), vehicle: saline with Tween-80
[13] = dose: 200.0 mg/kg/injection, schedule: Q01DX009 (ip), vehicle: saline with Tween-80
[14] = dose: 12.5 mg/kg/injection, schedule: Q01DX009 (ip), vehicle: Klucel (hydroxypropylcellulose) (HPC)
[15] = dose: 25.0 mg/kg/injection, schedule: Q01DX009 (ip), vehicle: Klucel (hydroxypropylcellulose) (HPC)

Measured: T/C

OC(C1CCCCC1)(C1CCCCC1)C1CCCCC1
inactive: [1] 104 % of control | [2] 91 % of control | dose: 200.0 mg/kg/injection, schedule: Q01DX009 (ip), vehicle: other 100 % of control | [3] 100 % of control | dose: 400.0 mg/kg/injection, schedule: Q01DX009 (ip), vehicle: other 109 % of control | [4] 91 % of control

COc1c(C)c(OCC=C(C)C)cc(CO)c1CO
inactive: [5] 109 % of control | [6] 109 % of control | [7] 100 % of control

c1nc(N2CC2)c2cnn(C3CCCCO3)c2n1 (configuration not stated)
inactive: [8] 109 % of control | [9] 100 % of control | [6] 95 % of control | [10] 100 % of control | dose: 150.0 mg/kg/injection, schedule: Q04DX003 (ip), vehicle: Klucel (hydroxypropylcellulose) (HPC) 120 % of control | [7] 116 % of control | dose: 225.0 mg/kg/injection, schedule: Q04DX003 (ip), vehicle: Klucel (hydroxypropylcellulose) (HPC) 120 % of control

CC(C)(CC(=O)O)CC(=O)OCC(=O)[C@@]1(O)CC[C@H]2[C@@H]3CCC4=CC(=O)C=C[C@]4(C)[C@H]3[C@@H](O)C[C@@]21C
inactive: dose: 100.0 mg/kg/injection, schedule: Q01DX009 (ip), vehicle: steriod suspending solution 100 % of control | dose: 100.0 mg/kg/injection, schedule: Q01DX009 (sc), vehicle: steriod suspending solution 120 % of control | dose: 100.0 mg/kg/injection, schedule: Q04DX003 (sc), vehicle: steriod suspending solution 108 % of control | dose: 200.0 mg/kg/injection, schedule: Q01DX009 (ip), vehicle: steriod suspending solution 90 % of control | dose: 200.0 mg/kg/injection, schedule: Q01DX009 (sc), vehicle: steriod suspending solution 120 % of control and 122 % of control | dose: 200.0 mg/kg/injection, schedule: Q04DX003 (sc), vehicle: steriod suspending solution 100 % of control | dose: 400.0 mg/kg/injection, schedule: Q01DX009 (ip), vehicle: steriod suspending solution 90 % of control | dose: 400.0 mg/kg/injection, schedule: Q01DX009 (sc), vehicle: steriod suspending solution 110 % of control | dose: 400.0 mg/kg/injection, schedule: Q04DX003 (sc), vehicle: steriod suspending solution 104 % of control

C[n+]1ccc(/C=C/c2ccc(Cl)c(Cl)c2)cc1
inactive: dose: 1.5 mg/kg/injection, schedule: Q01DX009 (ip), vehicle: Klucel (hydroxypropylcellulose) (HPC) 95 % of control | dose: 3.0 mg/kg/injection, schedule: Q01DX009 (ip), vehicle: Klucel (hydroxypropylcellulose) (HPC) 109 % of control | dose: 3.0 mg/kg/injection, schedule: Q04DX003 (ip), vehicle: Klucel (hydroxypropylcellulose) (HPC) 100 % of control | dose: 6.0 mg/kg/injection, schedule: Q04DX003 (ip), vehicle: Klucel (hydroxypropylcellulose) (HPC) 100 % of control

OC1CCC2(CC1)SCCS2
inactive: dose: 100.0 mg/kg/injection, schedule: Q01DX001 (ip), vehicle: saline with Tween-80 96 % of control | dose: 200.0 mg/kg/injection, schedule: Q01DX001 (ip), vehicle: saline with Tween-80 103 % of control | dose: 400.0 mg/kg/injection, schedule: Q01DX001 (ip), vehicle: saline with Tween-80 101 % of control

CC1=Nc2ccccc2C(=O)N(C)N1
inactive: [11] 100 % of control | [12] 104 % of control | [13] 97 % of control

OC1c2ccccc2C=Cc2ccccc21
inactive: dose: 25.0 mg/kg/injection, schedule: Q01DX001 (ip), vehicle: saline sonified 104 % of control | dose: 50.0 mg/kg/injection, schedule: Q01DX001 (ip), vehicle: saline sonified 104 % of control | dose: 100.0 mg/kg/injection, schedule: Q01DX001 (ip), vehicle: saline sonified 100 % of control

C[C@]1(O)CC[C@H]2[C@@H]3CCC4=CC(=O)CC[C@]4(C)[C@@]3(F)C(=O)C[C@@]21C
inactive: [14] 104 % of control | [15] 109 % of control | [5] 90 % of control | [2] 100 % of control | [3] 100 % of control | [4] 104 % of control

O=[N+]([O-])c1ccc(N2CCN(Cc3ccccc3)CC2)c2c1no[n+]2[O-]
inactive: dose: 75.0 mg/kg/injection, schedule: Q04DX003 (ip), vehicle: saline with Tween-80 101 % of control | dose: 300.0 mg/kg/injection, schedule: Q04DX003 (ip), vehicle: saline with Tween-80 121 % of control

COc1cc2c3c(c1)-c1c(ccc(OC)c1Oc1nnnn1-c1ccccc1)CC3N(C)CC2 (configuration not stated)
inactive: dose: 12.5 mg/kg/injection, schedule: Q04DX003 (ip), vehicle: saline 108 % of control | [8] 115 % of control | [9] 115 % of control | [10] 108 % of control | dose: 200.0 mg/kg/injection, schedule: Q04DX003 (ip), vehicle: saline 115 % of control

O=C(Nc1cccc(Cl)c1)NN(c1ccccc1)C1CCS(=O)(=O)C1 (configuration not stated)
inactive: [11] 99 % of control | [12] 98 % of control | [13] 100 % of control

CC(C)c1nsc2c1C(=O)NC(C(C)(C)C)N2 (configuration not stated)
inactive: [11] 109 % of control | [12] 89 % of control | [13] 95 % of control

CCC(=O)OC(C)COc1ccc(C(C)(C)C)cc1 (configuration not stated)
inactive: [12] 110 % of control | [13] 110 % of control | dose: 400.0 mg/kg/injection, schedule: Q01DX009 (ip), vehicle: saline with Tween-80 124 % of control

CC1=CCCC(C)(C)C1/C=C/C(C)=C/C(=O)O (configuration not stated)
inactive: dose: 3.13 mg/kg/injection, schedule: Q01DX009 (ip), vehicle: Klucel (hydroxypropylcellulose) (HPC) 111 % of control | dose: 6.25 mg/kg/injection, schedule: Q01DX009 (ip), vehicle: Klucel (hydroxypropylcellulose) (HPC) 103 % of control | [14] 99 % of control | [15] 99 % of control | [6] 104 % of control | [7] 110 % of control

Cc1cc(C)nc(NC(N)=NCCc2ccccc2)n1
inactive: dose: 12.5 mg/kg/injection, schedule: Q01DX009 (ip), vehicle: saline with Tween-80 100 % of control | dose: 25.0 mg/kg/injection, schedule: Q01DX009 (ip), vehicle: saline with Tween-80 95 % of control | [11] 100 % of control

O=Cc1[nH]c(=S)[nH]c(=O)c1Cc1ccc([N+](=O)[O-])cc1
inactive: dose: 100.0 mg/kg/injection, schedule: Q04DX003 (ip), vehicle: saline with Tween-80 100 % of control | dose: 200.0 mg/kg/injection, schedule: Q04DX003 (ip), vehicle: saline with Tween-80 95 % of control | dose: 400.0 mg/kg/injection, schedule: Q04DX003 (ip), vehicle: saline with Tween-80 112 % of control

CC(C)(Cl)CNC(=O)c1ccc([N+](=O)[O-])cc1
inactive: [2] 91 % of control | [3] 104 % of control | [4] 100 % of control

CCCCOC(=S)Nc1ccccc1
inactive: dose: 50.0 mg/kg/injection, schedule: Q01DX009 (ip), vehicle: other 100 % of control | [1] 99 % of control

CCN(CC)Cc1nccn1-c1ccc([N+](=O)[O-])cc1C(=O)c1ccccc1Cl
inactive: dose: 50.0 mg/kg/injection, schedule: Q01DX009 (ip), vehicle: saline 100 % of control | dose: 100.0 mg/kg/injection, schedule: Q01DX009 (ip), vehicle: saline 118 % of control

O=[N+]([O-])c1ccc(/C=C/c2ncccn2)o1
inactive: [2] 100 % of control | [3] 100 % of control | [4] 100 % of control
